Measurements from patent US8124610B2, “Sodium channel inhibitors” (Icagen Inc., priority 2007, dated 2012).
pIC50: −log10 of the molar value.

Key:
hSCN9A = target: T1, hSCN9A (Homo sapiens, UniProt Q15858); assay: Whole-cell patch-clamp electrophysiology (conventional or PatchXpress), HEK cells expressing hSCN9A, estimated IC-50; assay type: cell-based; conditions: Table V; estimated IC-50 from single point electrophysiology, cells clamped at V1/2; read-out: SCN9A EIC-50
T1 construct: expressed in transfected cells
T1 sequence (Q15858 whole entry): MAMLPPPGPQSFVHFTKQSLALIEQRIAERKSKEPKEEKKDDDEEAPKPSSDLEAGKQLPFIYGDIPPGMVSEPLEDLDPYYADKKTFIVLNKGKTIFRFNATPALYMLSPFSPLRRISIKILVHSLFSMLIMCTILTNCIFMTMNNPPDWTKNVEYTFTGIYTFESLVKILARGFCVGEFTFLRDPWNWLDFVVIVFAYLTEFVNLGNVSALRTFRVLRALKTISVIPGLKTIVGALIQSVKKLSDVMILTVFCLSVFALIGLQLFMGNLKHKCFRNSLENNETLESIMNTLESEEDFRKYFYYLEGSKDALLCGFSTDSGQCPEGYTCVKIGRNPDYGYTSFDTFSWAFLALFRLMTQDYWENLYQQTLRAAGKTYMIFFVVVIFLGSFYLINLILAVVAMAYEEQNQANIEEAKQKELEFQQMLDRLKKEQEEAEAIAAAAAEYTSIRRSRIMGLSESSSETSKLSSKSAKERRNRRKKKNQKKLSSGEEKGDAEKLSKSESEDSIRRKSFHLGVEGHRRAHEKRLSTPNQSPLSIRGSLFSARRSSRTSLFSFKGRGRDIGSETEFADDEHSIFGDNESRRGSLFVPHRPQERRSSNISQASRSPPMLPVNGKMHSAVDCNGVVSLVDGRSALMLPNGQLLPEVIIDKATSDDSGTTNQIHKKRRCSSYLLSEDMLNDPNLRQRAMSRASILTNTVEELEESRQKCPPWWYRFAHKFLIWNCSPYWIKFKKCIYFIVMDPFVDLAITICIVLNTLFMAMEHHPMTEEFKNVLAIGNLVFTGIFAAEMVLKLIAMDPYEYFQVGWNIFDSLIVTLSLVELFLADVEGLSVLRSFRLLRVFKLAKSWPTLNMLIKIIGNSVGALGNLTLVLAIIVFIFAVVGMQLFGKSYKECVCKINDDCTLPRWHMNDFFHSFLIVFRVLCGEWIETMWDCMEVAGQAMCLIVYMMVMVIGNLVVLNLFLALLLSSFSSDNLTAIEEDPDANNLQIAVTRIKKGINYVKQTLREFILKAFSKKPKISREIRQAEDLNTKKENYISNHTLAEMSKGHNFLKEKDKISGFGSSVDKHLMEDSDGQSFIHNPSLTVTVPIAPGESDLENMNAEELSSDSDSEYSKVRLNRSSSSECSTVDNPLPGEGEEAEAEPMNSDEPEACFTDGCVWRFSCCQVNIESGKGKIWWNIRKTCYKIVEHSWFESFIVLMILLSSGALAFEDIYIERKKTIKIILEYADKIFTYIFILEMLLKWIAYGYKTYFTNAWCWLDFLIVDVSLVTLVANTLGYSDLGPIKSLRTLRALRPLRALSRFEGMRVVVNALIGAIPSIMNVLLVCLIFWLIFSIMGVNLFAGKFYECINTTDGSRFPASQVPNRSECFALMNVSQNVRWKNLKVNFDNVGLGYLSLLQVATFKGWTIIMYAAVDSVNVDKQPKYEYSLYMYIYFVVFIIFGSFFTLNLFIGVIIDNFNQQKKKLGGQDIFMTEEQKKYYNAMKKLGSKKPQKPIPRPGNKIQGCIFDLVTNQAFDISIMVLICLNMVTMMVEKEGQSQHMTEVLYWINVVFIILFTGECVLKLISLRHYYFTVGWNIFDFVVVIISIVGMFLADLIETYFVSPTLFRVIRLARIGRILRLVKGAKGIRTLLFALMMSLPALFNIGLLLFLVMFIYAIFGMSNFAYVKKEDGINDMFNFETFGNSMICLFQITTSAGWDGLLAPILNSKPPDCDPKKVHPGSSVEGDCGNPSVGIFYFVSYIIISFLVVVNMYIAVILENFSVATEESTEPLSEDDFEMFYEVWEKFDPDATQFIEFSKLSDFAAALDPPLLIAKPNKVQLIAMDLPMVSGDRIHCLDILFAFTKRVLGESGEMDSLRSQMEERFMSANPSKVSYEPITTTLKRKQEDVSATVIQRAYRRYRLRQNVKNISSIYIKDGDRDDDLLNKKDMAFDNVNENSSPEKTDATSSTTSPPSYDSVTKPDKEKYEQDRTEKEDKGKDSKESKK
Method in brief: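 Stably transfected HEK cells recorded by whole-cell voltage clamp (manual or PatchXpress) at 22–24 °C in pH 7.4 HEPES-buffered extracellular solution. Cells held at the empirically determined inactivation V1/2 after an 8 s prepulse, then stepped to 0 mV for 20 ms; % inhibition from current amplitude before vs after compound.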

hSCN3A = target: T2, hSCN3A (Homo sapiens, UniProt Q9NY46); assay: Whole-cell patch-clamp electrophysiology (conventional or PatchXpress), HEK cells expressing hSCN3A, estimated IC-50; assay type: cell-based; conditions: Table V; estimated IC-50 from single point electrophysiology, cells clamped at V1/2; read-out: SCN3A EIC-50
T2 construct: expressed in transfected cells
T2 sequence (Q9NY46 whole entry): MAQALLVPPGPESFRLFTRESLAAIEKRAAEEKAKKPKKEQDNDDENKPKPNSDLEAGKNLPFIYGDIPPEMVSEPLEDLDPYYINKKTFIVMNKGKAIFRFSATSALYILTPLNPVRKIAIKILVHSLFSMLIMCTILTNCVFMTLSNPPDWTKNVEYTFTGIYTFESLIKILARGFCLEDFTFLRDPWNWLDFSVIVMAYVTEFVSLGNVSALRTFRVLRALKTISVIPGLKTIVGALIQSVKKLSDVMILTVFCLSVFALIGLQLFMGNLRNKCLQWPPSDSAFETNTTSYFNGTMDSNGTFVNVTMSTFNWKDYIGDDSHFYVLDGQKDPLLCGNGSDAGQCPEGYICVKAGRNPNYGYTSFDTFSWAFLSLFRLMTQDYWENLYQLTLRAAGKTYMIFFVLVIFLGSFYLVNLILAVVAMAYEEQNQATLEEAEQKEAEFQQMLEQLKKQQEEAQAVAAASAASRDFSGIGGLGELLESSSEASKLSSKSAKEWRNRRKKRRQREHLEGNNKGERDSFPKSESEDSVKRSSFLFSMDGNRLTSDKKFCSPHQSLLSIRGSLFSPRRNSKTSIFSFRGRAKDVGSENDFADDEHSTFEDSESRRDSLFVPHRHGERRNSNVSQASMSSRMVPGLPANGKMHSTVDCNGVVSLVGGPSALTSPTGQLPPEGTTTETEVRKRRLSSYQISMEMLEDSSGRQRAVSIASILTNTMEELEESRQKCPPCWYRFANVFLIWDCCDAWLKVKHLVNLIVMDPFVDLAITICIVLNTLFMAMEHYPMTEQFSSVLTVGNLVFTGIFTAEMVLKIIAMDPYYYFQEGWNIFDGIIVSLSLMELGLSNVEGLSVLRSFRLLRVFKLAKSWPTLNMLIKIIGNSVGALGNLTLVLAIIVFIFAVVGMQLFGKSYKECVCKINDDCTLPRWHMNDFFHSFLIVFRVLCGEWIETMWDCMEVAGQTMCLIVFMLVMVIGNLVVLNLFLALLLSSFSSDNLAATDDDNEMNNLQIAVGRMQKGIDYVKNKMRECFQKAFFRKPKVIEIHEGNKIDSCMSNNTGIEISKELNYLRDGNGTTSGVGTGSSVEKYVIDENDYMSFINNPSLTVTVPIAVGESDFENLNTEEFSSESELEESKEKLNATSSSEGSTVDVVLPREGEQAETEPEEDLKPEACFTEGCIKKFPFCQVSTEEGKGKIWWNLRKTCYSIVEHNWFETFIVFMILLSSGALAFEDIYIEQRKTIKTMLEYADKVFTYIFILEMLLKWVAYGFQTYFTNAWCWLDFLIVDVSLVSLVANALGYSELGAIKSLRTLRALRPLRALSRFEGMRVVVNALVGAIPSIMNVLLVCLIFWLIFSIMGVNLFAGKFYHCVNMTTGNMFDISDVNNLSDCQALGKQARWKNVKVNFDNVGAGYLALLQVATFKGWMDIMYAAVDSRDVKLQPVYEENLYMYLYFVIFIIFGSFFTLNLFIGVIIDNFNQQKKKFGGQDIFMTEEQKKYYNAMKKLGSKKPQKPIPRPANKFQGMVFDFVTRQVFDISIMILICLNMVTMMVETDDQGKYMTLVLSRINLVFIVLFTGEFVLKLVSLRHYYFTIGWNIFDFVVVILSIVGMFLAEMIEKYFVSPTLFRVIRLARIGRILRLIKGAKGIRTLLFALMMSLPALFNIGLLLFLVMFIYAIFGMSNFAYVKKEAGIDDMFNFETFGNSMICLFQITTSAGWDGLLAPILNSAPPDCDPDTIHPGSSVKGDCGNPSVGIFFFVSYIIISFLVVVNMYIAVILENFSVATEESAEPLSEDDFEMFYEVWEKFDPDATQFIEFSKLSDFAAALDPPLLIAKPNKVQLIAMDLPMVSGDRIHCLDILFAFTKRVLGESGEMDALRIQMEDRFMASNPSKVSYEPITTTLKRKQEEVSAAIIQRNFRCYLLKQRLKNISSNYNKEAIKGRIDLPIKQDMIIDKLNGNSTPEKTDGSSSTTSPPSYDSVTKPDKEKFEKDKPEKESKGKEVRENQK
Method: Human Embryonic Kidney (HEK) cells were transfected with hSCN3A or hSCN9A constructs using lipofectamine reagent (Invitrogen), using standard techniques. Cells stably expressing the hSCN3A or hSCN9A constructs were identified by their resistance to G-418 (400 μg/ml). Clones were screened for expression using the whole-cell voltage-clamp technique. HEK cells stably transfected with hSCN3A or hSCN9A were maintained in DMEM medium supplemented with 10% heat-inactivated fetal bovine serum and 400 μg/ml G418 sulfate in an incubator at 37° C. with a humidified atmosphere of 10% CO2. For HTS, cells were harvested from flasks by trypsinization and replated in an appropriate multi-well plate (typically 96 or 384 wells/plate) such that confluence would be achieved within 24 hours of plating. For electrophysiological studies, cells were removed from the culture flask by brief trypsinization and replated at low density onto glass cover slips. Cells were typically used for electrophysiological experiments within 24 to 72 h after plating. Cover slips containing HEK cells expressing hSCN3A or hSCN9A were placed in a bath on the stage of an inverted microscope and perfused (approximately 1 ml/min) with extracellular solution of the following composition: 138 mM NaCl, 2 mM CaCl2, 5.4 mM KCl, 1 mM MgCl2, 10 mM glucose, and 10 mM HEPES, pH 7.4, with NaOH. […] All recordings were made at room temperature (22-24° C.) using AXOPATCH 200B amplifiers and PCLAMP software (Axon Instruments, Burlingame, Calif.) or PatchXpress 7000 hardware and associated software (Axon Instruments, Burlingame, Calif.). hSCN3A or hSCN9A currents in HEK cells were measured using the whole-cell configuration of the patch-clamp technique (Hamill et al., 1981). […] As a result, voltage errors were negligible and no correction was applied. Current records were acquired at 20 to 50 KHz and filtered at 5 to 10 KHz. HEK cells stably transfected with hSCN3A or hSCN9A were viewed under Hoffman contrast optics and placed in front of an array of flow pipes emitting either control or compound-containing extracellular solutions. All compounds were dissolved in dimethyl sulfoxide to make 10 mM stock solutions, which were then diluted into extracellular solution to attain the final concentrations desired. […] The voltage-dependence of inactivation was determined by applying a series of depolarizing prepulses (8 sec long in 10 mV increments) from a negative holding potential. The voltage was then immediately stepped to 0 mV to assess the magnitude of the sodium current. Currents elicited at 0 mV were plotted as a function of prepulse potential to allow estimation of the voltage midpoint of inactivation (V1/2). Cells were then voltage clamped at the empirically determined V1/2. Compounds were tested for their ability to inhibit hSCN3A or hSCN9A sodium channels by activating the channel with a 20 msec voltage step to 0 mV following an 8 second conditioning prepulse to the empirically determined V1-2 (Table B). Compound effect (% inhibition) was determined by difference in current amplitude before and after application of test compounds. […] In some cases electrophysiological assays were conducted with PatchXpress 7000 hardware and associated software (Molecular Devices Corp) (Table B). All assay buffers and solutions were identical to those used in conventional whole-cell voltage clamp experiments described above. hSCN3A or hSCN9A containing cells were grown as above to 50%-80% confluency and harvested by trypsinization. Trypsinized cells were washed and resuspended in extracellular buffer at a concentration of 1×10^6 cells/ml. The onboard liquid handling facility of the PatchXpress was used for dispensing cells and application of test compounds. Determination of the voltage midpoint of inactivation was as described for conventional whole-cell recordings. Cells were then voltage-clamped to the empirically determined V1/2 and current was activated by a 20 msec voltage step to 0 mV.

pIC50 (hSCN9A)	pIC50 (hSCN3A)	SMILES
5.00 to 5.70	5.00 to 5.70	CC(=O)c1sc(Nc2ccc(S(=O)(=O)Nc3nccs3)c(F)c2)nc1C [Compound 9, 4-(5-Acetyl-4-methyl-thiazol-2-ylamino)-2-fluoro-N-thiazol-2-yl-benzenesulfonamide]
5.00 to 5.70	> 5.70	CC(C)(C)c1csc(Nc2ccc(S(=O)(=O)Nc3nccs3)c(Cl)c2)n1 [Compound 10, 4-(4-Tert-butyl-thiazol-2-ylamino)-2-chloro-N-thiazol-2-yl-benzenesulfonamide]
5.00 to 5.70	5.00 to 5.70	CC(C)(C)c1csc(Nc2ccc(S(=O)(=O)Nc3nccs3)c(OC(F)(F)F)c2)n1 [Compound 11, 4-(4-tert-Butyl-thiazol-2-ylamino)-N-thiazol-2-yl-2-trifluoromethoxy-benzenesulfonamide]
5.00 to 5.70	> 5.70	CC(C)(C)c1csc(Nc2ccc(S(=O)(=O)Nc3nccs3)c3ccccc23)n1 [Compound 12, 4-(4-tert-Butyl-thiazol-2-ylamino)-naphthalene-1-sulfonic acid thiazol-2-ylamide]
> 5.70	> 5.70	Cc1nc(Nc2ccc(S(=O)(=O)Nc3nccs3)c(F)c2)sc1C(C)(C)C [Compound 13, 4-(5-tert-butyl-4-methylthiazol-2-ylamino)-2-fluoro-N-(thiazol-2-yl)benzenesulfonamide]
5.00 to 5.70	> 5.70	CC(C)(C)c1csc(Nc2ccc(S(=O)(=O)Nc3nccs3)cc2)n1 [Compound 14, 4-(4-Tert-butyl-thiazol-2-ylamino)-N-thiazol-2-yl-benzenesulfonamide]
> 5.70	> 5.70	CC(C)(C)n1nc(Cc2ccc(Cl)cc2)cc1Nc1ccc(S(=O)(=O)Nc2nccs2)cc1 [Compound 15, 4-(1-tert-butyl-3-(4-chlorobenzyl)-1H-pyrazol-5-ylamino)-N-(thiazol-2-yl)benzenesulfonamide]
> 5.70	> 5.70	O=S(=O)(Nc1nccs1)c1ccc(Nc2cc(Cc3ccc(Cl)cc3)n[nH]2)cc1 [Compound 16, 4-(3-(4-Chlorobenzyl)-1H-pyrazol-5-ylamino)-N-(thiazol-2-yl)benzenesulfonamide]
5.00 to 5.70	> 5.70	Cn1nc(C(C)(C)C)cc1Nc1ccc(S(=O)(=O)Nc2nccs2)cc1 [Compound 17, 4-(3-Tert-butyl-1-methyl-1H-pyrazol-5-ylamino)-N-(thiazol-2-yl)benzenesulfonamide]
< 5.00	> 5.70	CC(C)(C)c1cc(Nc2ccc(S(=O)(=O)Nc3nccs3)cc2)no1 [Compound 18]
< 5.00	> 5.70	CC(C)(C)n1nc(Nc2ccc(S(=O)(=O)Nc3nccs3)cc2)nc1N [Compound 19, 4-(5-Amino-1-tert-butyl-1H-1,2,4-triazol-3-ylamino)-N-(thiazol-2-yl)benzenesulfonamide]
5.00 to 5.70	> 5.70	Cc1cc(Nc2ccc(S(=O)(=O)Nc3nccs3)cc2)n(-c2ccccc2)n1 [Compound 20, 4-(3-methyl-1-phenyl-1H-pyrazol-5-ylamino)-N-(thiazol-2-yl)benzenesulfonamide]
> 5.70	> 5.70	Cn1nc(Cc2ccc(Cl)cc2)cc1Nc1ccc(S(=O)(=O)Nc2nccs2)cc1 [Compound 21, 4-(3-(4-Chlorobenzyl)-1-methyl-1H-pyrazol-5-ylamino)-N-(thiazol-2-yl)benzenesulfonamide]
5.00 to 5.70	5.00 to 5.70	CC(C)(C)c1cc(Nc2ccc(S(=O)(=O)Nc3nccs3)cc2)n(C(C)(C)C)n1 [Compound 22, 4-(1,3-di-tert-butyl-1H-pyrazol-5-ylamino)-N-(thiazol-2-yl)benzenesulfonamide]
5.00 to 5.70	5.00 to 5.70	CC(C)(C)c1cc(Nc2ccc(S(=O)(=O)Nc3nccs3)cc2)[nH]n1 [Compound 23, 4-(3-tert-butyl-1H-pyrazol-5-ylamino)-N-(thiazol-2-yl)benzenesulfonamide]
< 5.00	5.00 to 5.70	Nc1nc(Nc2ccc(S(=O)(=O)Nc3nccs3)cc2)nn1Cc1ccc(Cl)cc1 [Compound 24, 4-(5-amino-1-(4-chlorobenzyl)-1H-1,2,4-triazol-3-ylamino)-N-(thiazol-2-yl)benzenesulfonamide]
< 5.00	> 5.70	N#Cc1cnn(-c2ccc(F)c(Cl)c2)c1Nc1ccc(S(=O)(=O)Nc2nccs2)cc1 [Compound 25, 4-(1-(3-chloro-4-fluorophenyl)-4-cyano-1H-pyrazol-5-ylamino)-N-(thiazol-2-yl)benzenesulfonamide]
> 5.70	> 5.70	CC(C)(C)n1nc(Cc2ccc(Cl)cc2)cc1Nc1ccc(S(=O)(=O)Nc2nccs2)c(F)c1 [Compound 26, 4-(1-tert-butyl-3-(4-chlorobenzyl)-1H-pyrazol-5-ylamino)-2-fluoro-N-(thiazol-2-yl)benzenesulfonamide]
< 5.00	> 5.70	O=S(=O)(Nc1nccs1)c1ccc(Nc2nnc(Cc3ccc(C(F)(F)F)cc3)s2)cc1 [Compound 27, N-(thiazol-2-yl)-4-(5-(4-(trifluoromethyl)benzyl)-1,3,4-thiadiazol-2-ylamino)benzenesulfonamide]
< 5.00	> 5.70	O=S(=O)(Nc1nccs1)c1ccc(Nc2nnc(Cc3ccc(C(F)(F)F)cc3)o2)cc1 [Compound 28, N-(thiazol-2-yl)-4-(5-(4-(trifluoromethyl)benzyl)-1,3,4-oxadiazol-2-ylamino)benzenesulfonamide]
> 5.70	> 5.70	Cn1nc(CC2CCCCC2)cc1Nc1ccc(S(=O)(=O)Nc2nccs2)cc1 [Compound 29, 4-(3-(cyclohexylmethyl)-1-methyl-1H-pyrazol-5-ylamino)-N-(thiazol-2-yl)benzenesulfonamide]
> 5.70	> 5.70	Cc1cc(Nc2ccc(S(=O)(=O)Nc3nccs3)c(F)c2)n(-c2ccccc2)n1 [Compound 30, 2-fluoro-4-(3-methyl-1-phenyl-1H-pyrazol-5-ylamino)-N-(thiazol-2-yl)benzenesulfonamide]
> 5.70	> 5.70	O=S(=O)(Nc1nccs1)c1ccc(Nc2ccn(Cc3ccc(Cl)cc3)n2)cc1F [Compound 31, 4-(1-(4-chlorobenzyl)-1H-pyrazol-3-ylamino)-2-fluoro-N-(thiazol-2-yl)benzenesulfonamide]
> 5.70	> 5.70	O=S(=O)(Nc1nccs1)c1ccc(Nc2cc(C3CC3)nn2-c2ccccc2)cc1F [Compound 32, 4-(3-cyclopropyl-1-phenyl-1H-pyrazol-5-ylamino)-2-fluoro-N-(thiazol-2-yl)benzenesulfonamide]
> 5.70	> 5.70	O=S(=O)(Nc1nccs1)c1ccc(Nc2cnn(Cc3ccc(Cl)cc3)c2)cc1F [Compound 33, 4-(1-(4-chlorobenzyl)-1H-pyrazol-4-ylamino)-2-fluoro-N-(thiazol-2-yl)benzenesulfonamide]
> 5.70	> 5.70	Cn1nc(CC(C)(C)C)cc1Nc1ccc(S(=O)(=O)Nc2nccs2)c(F)c1 [Compound 34, 2-fluoro-4-(1-methyl-3-neopentyl-1H-pyrazol-5-ylamino)-N-(thiazol-2-yl)benzenesulfonamide]
